Laboratory results taken from patent US20150258059A1, “ANTIMICROBIAL AND RADIOPROTECTIVE COMPOUNDS” (BioDiem, Ltd, priority 2001, published 2015).

Test system: Enterobacter aerogenes B-687
Assay: Sensitivity of strains: suppression of growth
Assay type: cell-based
Conditions: Compound (1) 1.0%; antibiotics disc method

Compound | Suppression of Growth (+/−)
CC1(C)S[C@@H]2[C@H](NC(=O)C(C(=O)O)c3ccccc3)C(=O)N2[C@H]1C(=O)O (stereo partly shown) [Antibiotic 4, carbenicillin] | −

Test system: Escherichia coli M-17
Assay: Sensitivity of strains: suppression of growth
Assay type: cell-based
Conditions: Compound (1) 1.0%; antibiotics disc method

Compound | Suppression of Growth (+/−)
CC1(C)S[C@@H]2[C@H](NC(=O)C(C(=O)O)c3ccccc3)C(=O)N2[C@H]1C(=O)O (stereo partly shown) [Antibiotic 4, carbenicillin] | +

Test system: Klebsiella pneumoniae M-248
Assay: Sensitivity of strains: suppression of growth
Assay type: cell-based
Conditions: Compound (1) 1.0%; antibiotics disc method

Compound | Suppression of Growth (+/−)
CC1(C)S[C@@H]2[C@H](NC(=O)C(C(=O)O)c3ccccc3)C(=O)N2[C@H]1C(=O)O (stereo partly shown) [Antibiotic 4, carbenicillin] | −

Test system: Bacillus sp. B-575
Assay: Sensitivity of strains: suppression of growth
Assay type: cell-based
Conditions: Compound (1) 1.0%; antibiotics disc method

Compound | Suppression of Growth (+/−)
CC1(C)S[C@@H]2[C@H](NC(=O)C(C(=O)O)c3ccccc3)C(=O)N2[C@H]1C(=O)O (stereo partly shown) [Antibiotic 4, carbenicillin] | −

Test system: γ-hemolytic streptococcus B-672
Assay: Sensitivity of strains: suppression of growth
Assay type: cell-based
Conditions: Compound (1) 1.0%; antibiotics disc method

Compound | Suppression of Growth (+/−)
CC1(C)S[C@@H]2[C@H](NC(=O)C(C(=O)O)c3ccccc3)C(=O)N2[C@H]1C(=O)O (stereo partly shown) [Antibiotic 4, carbenicillin] | −

Test system: Acinetobacter B-676
Assay: Sensitivity of strains: suppression of growth
Assay type: cell-based
Conditions: Compound (1) 1.0%; antibiotics disc method

Compound | Suppression of Growth (+/−)
CC1(C)S[C@@H]2[C@H](NC(=O)C(C(=O)O)c3ccccc3)C(=O)N2[C@H]1C(=O)O (stereo partly shown) [Antibiotic 4, carbenicillin] | −

Test system: Citrobacter diversus B-678
Assay: Sensitivity of strains: suppression of growth
Assay type: cell-based
Conditions: Compound (1) 1.0%; antibiotics disc method

Compound | Suppression of Growth (+/−)
CC1(C)S[C@@H]2[C@H](NC(=O)C(C(=O)O)c3ccccc3)C(=O)N2[C@H]1C(=O)O (stereo partly shown) [Antibiotic 4, carbenicillin] | −

Test system: Acinetobacter B-677
Assay: Sensitivity of strains: suppression of growth
Assay type: cell-based
Conditions: Compound (1) 1.0%; antibiotics disc method

Compound | Suppression of Growth (+/−)
CC1(C)S[C@@H]2[C@H](NC(=O)C(C(=O)O)c3ccccc3)C(=O)N2[C@H]1C(=O)O (stereo partly shown) [Antibiotic 4, carbenicillin] | −

Test system: Staphylococci epidermidis D-513
Assay: Sensitivity of strains: suppression of growth
Assay type: cell-based
Conditions: Compound (1) 1.0%; antibiotics disc method

Compound | Suppression of Growth (+/−)
CC1(C)S[C@@H]2[C@H](NC(=O)C(C(=O)O)c3ccccc3)C(=O)N2[C@H]1C(=O)O (stereo partly shown) [Antibiotic 4, carbenicillin] | +

Test system: Enterobacter aerogenes B-679
Assay: Sensitivity of strains: suppression of growth
Assay type: cell-based
Conditions: Compound (1) 1.0%; antibiotics disc method

Compound | Suppression of Growth (+/−)
CC1(C)S[C@@H]2[C@H](NC(=O)C(C(=O)O)c3ccccc3)C(=O)N2[C@H]1C(=O)O (stereo partly shown) [Antibiotic 4, carbenicillin] | −

Test system: Staphylococcus aureus M-12159
Assay: Sensitivity of strains: suppression of growth
Assay type: cell-based
Conditions: Compound (1) 1.0%; antibiotics disc method

Compound | Suppression of Growth (+/−)
CC1(C)S[C@@H]2[C@H](NC(=O)C(C(=O)O)c3ccccc3)C(=O)N2[C@H]1C(=O)O (stereo partly shown) [Antibiotic 4, carbenicillin] | +

Test system: Staphylococcus aureus M-209
Assay: Sensitivity of strains: suppression of growth
Assay type: cell-based
Conditions: Compound (1) 1.0%; antibiotics disc method

Compound | Suppression of Growth (+/−)
CC1(C)S[C@@H]2[C@H](NC(=O)C(C(=O)O)c3ccccc3)C(=O)N2[C@H]1C(=O)O (stereo partly shown) [Antibiotic 4, carbenicillin] | +

Test system: Neisseria meningitidis M-6231
Assay: Sensitivity of strains: suppression of growth
Assay type: cell-based
Conditions: Compound (1) 1.0%; antibiotics disc method

Compound | Suppression of Growth (+/−)
CC1(C)S[C@@H]2[C@H](NC(=O)C(C(=O)O)c3ccccc3)C(=O)N2[C@H]1C(=O)O (stereo partly shown) [Antibiotic 4, carbenicillin] | −

Test system: Alkaligenes sp. B-667
Assay: Sensitivity of strains: suppression of growth
Assay type: cell-based
Conditions: Compound (1) 1.0%; antibiotics disc method

Compound | Suppression of Growth (+/−)
CC1(C)S[C@@H]2[C@H](NC(=O)C(C(=O)O)c3ccccc3)C(=O)N2[C@H]1C(=O)O (stereo partly shown) [Antibiotic 4, carbenicillin] | −

Test system: Conditional pathogenic enterobacteria gram-negative aerobic bacilli; also: key: + sensitive strains; + moderately sensitive strains; − stable strains
Assay: not given
Assay type: cell-based
Conditions: not given

Compound | Suppression of Growth (+/−)
CC1(C)S[C@@H]2[C@H](NC(=O)C(C(=O)O)c3ccccc3)C(=O)N2[C@H]1C(=O)O (stereo partly shown) [Antibiotic 4, carbenicillin] | −

Test system: β-hemolytic streptococcus B-624
Assay: Sensitivity of strains: suppression of growth
Assay type: cell-based
Conditions: Compound (1) 1.0%; antibiotics disc method

Compound | Suppression of Growth (+/−)
CC1(C)S[C@@H]2[C@H](NC(=O)C(C(=O)O)c3ccccc3)C(=O)N2[C@H]1C(=O)O (stereo partly shown) [Antibiotic 4, carbenicillin] | +

Test system: Alkaligenes sp. B-689
Assay: Sensitivity of strains: suppression of growth
Assay type: cell-based
Conditions: Compound (1) 1.0%; antibiotics disc method

Compound | Suppression of Growth (+/−)
CC1(C)S[C@@H]2[C@H](NC(=O)C(C(=O)O)c3ccccc3)C(=O)N2[C@H]1C(=O)O (stereo partly shown) [Antibiotic 4, carbenicillin] | −

Test system: Escherichia coli B-65
Assay: Sensitivity of strains: suppression of growth
Assay type: cell-based
Conditions: Compound (1) 1.0%; antibiotics disc method

Compound | Suppression of Growth (+/−)
CC1(C)S[C@@H]2[C@H](NC(=O)C(C(=O)O)c3ccccc3)C(=O)N2[C@H]1C(=O)O (stereo partly shown) [Antibiotic 4, carbenicillin] | +

Test system: Neisseria meningitidis M-A72
Assay: Sensitivity of strains: suppression of growth
Assay type: cell-based
Conditions: Compound (1) 1.0%; antibiotics disc method

Compound | Suppression of Growth (+/−)
CC1(C)S[C@@H]2[C@H](NC(=O)C(C(=O)O)c3ccccc3)C(=O)N2[C@H]1C(=O)O (stereo partly shown) [Antibiotic 4, carbenicillin] | −

Test system: Pseudomonas aeruginosa B-601
Assay: Sensitivity of strains: suppression of growth
Assay type: cell-based
Conditions: Compound (1) 1.0%; antibiotics disc method

Compound | Suppression of Growth (+/−)
CC1(C)S[C@@H]2[C@H](NC(=O)C(C(=O)O)c3ccccc3)C(=O)N2[C@H]1C(=O)O (stereo partly shown) [Antibiotic 4, carbenicillin] | +

Test system: Corynebacterium diphtheriae B-670
Assay: Sensitivity of strains: suppression of growth
Assay type: cell-based
Conditions: Compound (1) 1.0%; antibiotics disc method

Compound | Suppression of Growth (+/−)
CC1(C)S[C@@H]2[C@H](NC(=O)C(C(=O)O)c3ccccc3)C(=O)N2[C@H]1C(=O)O (stereo partly shown) [Antibiotic 4, carbenicillin] | −

Test system: Yersinia pseudotuberculosis
Assay: not given
Assay type: cell-based
Conditions: Compound (1) 1.0%; antibiotics disc method

Compound | Suppression of Growth (+/−)
CC1(C)S[C@@H]2[C@H](NC(=O)C(C(=O)O)c3ccccc3)C(=O)N2[C@H]1C(=O)O (stereo partly shown) [Antibiotic 4, carbenicillin] | −

Test system: Staphylococcus aureus B-674
Assay: Sensitivity of strains: suppression of growth
Assay type: cell-based
Conditions: Compound (1) 1.0%; antibiotics disc method

Compound | Suppression of Growth (+/−)
CC1(C)S[C@@H]2[C@H](NC(=O)C(C(=O)O)c3ccccc3)C(=O)N2[C@H]1C(=O)O (stereo partly shown) [Antibiotic 4, carbenicillin] | −

Test system: Acinetobacter B-681
Assay: Sensitivity of strains: suppression of growth
Assay type: cell-based
Conditions: Compound (1) 1.0%; antibiotics disc method

Compound | Suppression of Growth (+/−)
CC1(C)S[C@@H]2[C@H](NC(=O)C(C(=O)O)c3ccccc3)C(=O)N2[C@H]1C(=O)O (stereo partly shown) [Antibiotic 4, carbenicillin] | −

Test system: Klebsiella pneumoniae M-A21
Assay: Sensitivity of strains: suppression of growth
Assay type: cell-based
Conditions: Compound (1) 1.0%; antibiotics disc method

Compound | Suppression of Growth (+/−)
CC1(C)S[C@@H]2[C@H](NC(=O)C(C(=O)O)c3ccccc3)C(=O)N2[C@H]1C(=O)O (stereo partly shown) [Antibiotic 4, carbenicillin] | −

Test system: Staphylococcus aureus B-685
Assay: Sensitivity of strains: suppression of growth
Assay type: cell-based
Conditions: Compound (1) 1.0%; antibiotics disc method

Compound | Suppression of Growth (+/−)
CC1(C)S[C@@H]2[C@H](NC(=O)C(C(=O)O)c3ccccc3)C(=O)N2[C@H]1C(=O)O (stereo partly shown) [Antibiotic 4, carbenicillin] | +

Test system: Staphylococcus epidermidis BK-30
Assay: Sensitivity of strains: suppression of growth
Assay type: cell-based
Conditions: Compound (1) 1.0%; antibiotics disc method

Compound | Suppression of Growth (+/−)
CC1(C)S[C@@H]2[C@H](NC(=O)C(C(=O)O)c3ccccc3)C(=O)N2[C@H]1C(=O)O (stereo partly shown) [Antibiotic 4, carbenicillin] | +

Test system: Escherichia coli B-683
Assay: Sensitivity of strains: suppression of growth
Assay type: cell-based
Conditions: Compound (1) 1.0%; antibiotics disc method

Compound | Suppression of Growth (+/−)
CC1(C)S[C@@H]2[C@H](NC(=O)C(C(=O)O)c3ccccc3)C(=O)N2[C@H]1C(=O)O (stereo partly shown) [Antibiotic 4, carbenicillin] | +
